Laboratory results published in ChEMBL document CHEMBL1147059, “Replication and homologous recombination repair regulate DNA double-strand break formation by the antitumor alkylator ecteinascidin 743” (Proc Natl Acad Sci U S A, 2007).
Calls of active or inactive are those of the source. The rule behind the calls is not given here.

Assays:
V79 [1] = assay: Induction of chromosome damage in Chinese hamster V79 cells assessed as number of damaged chromosomes per 100 metaphases at 100 nM for 1 hr followed by post incubation in drug-free media for 24 hrs; format: functional, Cricetulus griseus
[2] = Induction of chromosome damage in BRCA2 deficient Chinese hamster V-C8 cells assessed as number of damaged chromosomes per 100 metaphases at 2 nM for 1 hr followed by post incubation in drug-free media for 24 hrs; format: functional, Cricetulus griseus
[3] = Effect on cell cycle progression in Chinese hamster homologous recombination repair XRCC3 gene deficient irs1SF cells assessed as increase in accumulation at G2/M phase at 6 nM for 1 hr followed by post incubation in drug-free media for 24 hrs relative to control; format: functional, Cricetulus griseus
V79 [4] = assay: Induction of chromosome damage in Chinese hamster V79 cells assessed as number of damaged chromosomes per 100 metaphases at 50 nM for 1 hr followed by post incubation in drug-free media for 24 hrs; format: functional, Cricetulus griseus
CHO-AA8 [5] = assay: Effect on cell cycle distribution in Chinese hamster AA8 cells assessed as isotoxic dose after 1 hr; format: functional, Cricetulus griseus
[6] = Cytotoxicity in homologous recombination repair RAD51C gene deficient Chinese hamster CL-V4B cells assessed as cell viability by MTT assay relative to wild type cells; format: functional, Cricetulus griseus
HeLa [7] = assay: Induction of DNA double strand breaks in human HeLa cells assessed as phosphorylated histone H2AX formation after 1 hr by immunostaining; format: functional, cell-based
CHO-AA8 [8] = assay: Effect on cell cycle progression in Chinese hamster AA8 cells assessed as accumulation at G2 phase at 140 nM; format: functional, cell-based; settings: Cricetulus griseus
CHO-AA8 [9] = assay: Effect on cell cycle progression in Chinese hamster AA8 cells assessed as accumulation at S phase at 140 nM; format: functional, cell-based; settings: Cricetulus griseus
[10] = Induction of chromosome damage in BRCA2 deficient Chinese hamster V-C8 cells assessed as number of damaged chromosomes per 100 metaphases at 100 nM for 1 hr followed by post incubation in drug-free media for 24 hrs; format: functional, Cricetulus griseus
[11] = Induction of chromosome damage in BRCA2 deficient Chinese hamster V-C8 cells assessed as number of radials per 100 metaphases at 5 nM for 1 hr followed by post incubation in drug-free media for 24 hrs; format: functional, Cricetulus griseus
HeLa [12] = assay: Reduction of cellular viability in human HeLa cells at 20 nM after 1 hr by MTT assay; format: functional
CHO-AA8 [13] = assay: Induction of DNA double strand breaks in Chinese hamster AA8 cells at 100 nM after 1 hr by comet assay; format: functional, Cricetulus griseus
[14] = Induction of DNA double strand breaks in Chinese hamster homologous recombination repair XRCC3 gene deficient irs1SF cells at 100 nM after 1 hr by comet assay; format: functional, Cricetulus griseus
HeLa [15] = assay: Induction of DNA double strand breaks in human S-phase synchronized HeLa cells by alkaline comet assay; format: functional, cell-based
V79 [16] = assay: Induction of chromosome damage in Chinese hamster V79 cells assessed as number of radials per 100 metaphases at 10 nM for 1 hr followed by post incubation in drug-free media for 24 hrs; format: functional, Cricetulus griseus
Lymphocyte = assay: Induction of DNA double strand breaks in nonproliferating human lymphocytes at 100 nM by alkaline comet assay; format: functional, cell-based
CHO-AA8 [17] = assay: Effect on cell cycle progression in Chinese hamster AA8 cells assessed as increase in accumulation at G2/M phase at 6 nM for 1 hr followed by post incubation in drug-free media for 6 hrs relative to control; format: functional, cell-based; settings: Cricetulus griseus
[18] = Cytotoxicity in homologous recombination repair XRCC2 gene deficient Chinese hamster irs1 cells assessed as cell viability by MTT assay relative to wild type cells; format: functional, Cricetulus griseus
[19] = Effect on cell cycle progression in Chinese hamster homologous recombination repair XRCC3 gene deficient irs1SF cells assessed as increase in accumulation at S phase at 6 nM for 1 hr followed by post incubation in drug-free media for 6 hrs relative to control; format: functional, Cricetulus griseus
[20] = Cytotoxicity in homologous recombination repair XRCC3 gene deficient Chinese hamster irs1SF cells assessed as cell viability by MTT assay relative to wild type cells; format: functional, Cricetulus griseus
CCRF-CEM [21] = assay: Induction of DNA double strand breaks in human CEM cells at 100 nM by alkaline comet assay; format: functional, cell-based
[22] = Effect on cell cycle distribution in Chinese hamster homologous recombination repair XRCC3 gene deficient irs1SF cells after 1 hr followed by post incubation in drug-free media; format: functional, Cricetulus griseus
HeLa [23] = assay: Reduction of DNA synthesis in human HeLa cells at 30 nM after 1 hrs […]; format: functional; design: scale not given: the % may be the effect or the level left
V79 [24] = assay: Induction of chromosome damage in Chinese hamster V79 cells assessed as number of radials per 100 metaphases at 100 nM for 1 hr followed by post incubation in drug-free media for 24 hrs; format: functional, Cricetulus griseus
[25] = Induction of chromosome damage in BRCA2 deficient Chinese hamster V-C8 cells assessed as number of damaged chromosomes per 100 metaphases at 1 nM for 1 hr followed by post incubation in drug-free media for 24 hrs; format: functional, Cricetulus griseus
[26] = Cytotoxicity in homologous recombination repair BRCA2 gene deficient Chinese hamster V-C8 cells assessed as cell viability by MTT assay relative to wild type cells; format: functional, Cricetulus griseus
[27] = Induction of chromosome damage in BRCA2 deficient Chinese hamster V-C8 cells assessed as number of radials per 100 metaphases at 10 nM for 1 hr followed by post incubation in drug-free media for 24 hrs; format: functional, Cricetulus griseus
V79 [28] = assay: Induction of chromosome damage in Chinese hamster V79 cells assessed as number of damaged chromosomes per 100 metaphases at 10 nM for 1 hr followed by post incubation in drug-free media for 24 hrs; format: functional, Cricetulus griseus
HeLa [29] = assay: Reversal of induction of DNA double strand breaks in human HeLa cells at >50 nM in presence of aphidicolin after 1 hr by neutral comet assay; format: functional, cell-based
[30] = Induction of chromosome damage in BRCA2 deficient Chinese hamster V-C8 cells assessed as number of radials per 100 metaphases at 1 nM for 1 hr followed by post incubation in drug-free media for 24 hrs; format: functional, Cricetulus griseus
CCRF-CEM [31] = assay: Induction of DNA double strand breaks in human CEM cells assessed as phosphorylated histone H2AX formation after 1 hr by immunostaining; format: functional, cell-based
CHO-AA8 [32] = assay: Induction of DNA double strand breaks in Chinese hamster AA8 cells assessed as phosphorylated histone H2AX formation after 1 hr by immunostaining; format: functional, cell-based; settings: Cricetulus griseus
[33] = Induction of chromosome damage in BRCA2 deficient Chinese hamster V-C8 cells assessed as number of damaged chromosomes per 100 metaphases at 5 nM for 1 hr followed by post incubation in drug-free media for 24 hrs; format: functional, Cricetulus griseus
V79 [34] = assay: Induction of chromosome damage in Chinese hamster V79 cells assessed as number of radials per 100 metaphases at 50 nM for 1 hr followed by post incubation in drug-free media for 24 hrs; format: functional, Cricetulus griseus
[35] = Induction of chromosome damage in BRCA2 deficient Chinese hamster V-C8 cells assessed as number of radials per 100 metaphases at 2 nM for 1 hr followed by post incubation in drug-free media for 24 hrs; format: cell-based, Cricetulus griseus; settings: v-c8, 1 h, 0.002 µM
HeLa [36] = assay: Induction of DNA double strand breaks in human HeLa cells after 1 hr by neutral comet assay; format: functional, cell-based

COc1cc2c(cc1O)CCN[C@]21CS[C@@H]2c3c(OC(C)=O)c(C)c4c(c3[C@H](COC1=O)N1[C@@H]2[C@H]2c3c(cc(C)c(OC)c3O)C[C@@H]([C@@H]1O)N2C)OCO4 [TRABECTEDIN]
Activity (V79 [1]): 57
Activity [2]: 42
Activity [3]: 35%
Activity (V79 [4]): 50
Activity (CHO-AA8 [5]): 140 nM
Fold change [6]: 8
Activity (HeLa [7]): Active
Activity (CHO-AA8 [8]): Active
Activity (CHO-AA8 [9]): Active
Activity [10]: 100
Activity [11]: 2
Activity (HeLa [12]): 50%
Activity (CHO-AA8 [13]): 20%
Activity [14]: 19%
Activity (HeLa [15]): Toxic
Activity (V79 [16]): 0
Activity (Lymphocyte): inactive
Activity (CHO-AA8 [17]): inactive
Fold change [18]: 8
Activity [19]: 65%
Fold change [20]: 23
Activity (CCRF-CEM [21]): Active
IC50 [22]: 6 nM
Activity (HeLa [23]): 50%
Activity (V79 [24]): 24
Activity [25]: 14
Fold change [26]: 18
Activity [27]: 3
Activity (V79 [28]): 1
Activity (HeLa [29]): Active
Activity [30]: 1
Activity (CCRF-CEM [31]): Active
Activity (CHO-AA8 [32]): Active
Activity [33]: 90
Activity (V79 [34]): 27
Activity [35]: 1
Activity (HeLa [36]): Dose-dependent effect
